Laboratory results published in PMC3636874, “An Antedrug of the CXCL12 Neutraligand Blocks Experimental Allergic Asthma without Systemic Effect in Mice” (The Journal of Biological Chemistry, 2013).

Tests used:
[1] = system: inflammatory cell recruitment in the airways of OVA-sensitized and challenged BALB/c mice; assay: 8-day murine model of airway hypereosinophilia (OVA sensitization and challenge), cell counts in BALF; assay type: in vivo, mouse; conditions: for effect on eosinophil / inflammatory cell recruitment in BALF after OVA challenge, intranasal: intranasal 300 nmol/kg in 10% HP-βCD, 2 h before each challenge; for inhibition of eosinophil counts in BALF: intranasal, 300–500 nmol/kg in 10% HP-βCD, 2 h before each OVA challenge; for effect on inflammatory cell counts in BALF after OVA challenge, intraperitoneal in HP-βCD: twice daily 20 μmol/kg in 10% HP-βCD, 3 days; for effect on airway inflammation (BALF cell recruitment) after OVA challenge, intraperitoneal in carboxymethylcellulose: up to 350 μmol/kg once a day for 3 days in 1% carboxymethylcellulose
Experimental: The in vivo activity of the compounds was assessed in an 8-day model of hypereosinophilia created by immunization and challenge to ovalbumin in mice. Briefly, 9-week-old male BALB/c mice were sensitized by intraperitoneal injection of a mixture of 50 μg of ovalbumin (OVA, grade V; Sigma-Aldrich) adsorbed on aluminum hydroxide (2 mg; Sigma-Aldrich) in 0.1 ml of saline on days 0, 1, and 2. Mice were challenged intranasally with 10 μg of OVA in 25 μl of saline (12.5 μl/nostril) on days 5, 6, and 7. Control mice received intraperitoneal and intranasal administrations of saline alone. Intranasal administrations were performed under anesthesia with 50 mg/kg ketamine and 3.33 mg/kg xylazine given intraperitoneally. Food and water were supplied ad libitum. Animal experimentation was conducted with the approval of the government body that regulates animal research in France. The chalcone compounds were administered either by the intraperitoneal or intranasal routes. In a first set of experiments, mice received either chalcone 4 or carbonitrile-chalcone 4 solubilized in PBS with 10% HP-βCD (C0926, Sigma) by intranasal injection 2 h before each nasal OVA or saline challenge. In a second set of experiments, mice received CN-chalcone 4, vanillin, or parachlorobenzoylacetonitrile intranasally, in PBS with HP-βCD 10%, 2 h before each OVA or saline challenge. In the last set of experiments, mice received chalcone 4 or CN-chalcone 4 in suspension in carboxymethylcellulose 1% or solubilized in PBS with HP-βCD 10% and administered by intraperitoneal injection 2 h before each OVA or saline challenge. Collection of bronchoalveolar lavage fluid (BALF) was performed 24 h after the last OVA challenge. Mice were deeply anesthetized by intraperitoneal injection of 150 mg/kg ketamine and 10 mg/kg xylazine. A plastic canula was inserted into the trachea, and airways were lavaged by 10 instillations of 0.5 ml of ice-cold saline supplemented with 2.6 mM EDTA (saline-EDTA). Total and differential cell counts in the BALF were performed after centrifugation (300 × g for 5 min at 4 °C) to pellet cells. Erythrocytes were lysed by hypotonic shock by the addition of 1.5 ml of distilled H2O, followed by the addition of 0.5 ml of 0.6 M KCl. Cells were centrifuged and resuspended in 500 μl of ice-cold saline-EDTA, and total cell counts were determined using a hemocytometer (Neubauer's chamber). Differential cell counts were assessed on cytologic preparation obtained by cytocentrifugation (Cytospin 3, Shandon Ltd.) of 200 μl of diluted BALF (250,000 cells/ml in ice-cold saline-EDTA). Slides were stained with Hemacolor (Merck), and counts were performed on at least 400 cells for each preparation. Differential counts were expressed as absolute numbers or as a percentage of the total number of cells.
The in vivo activity of CN-chalcone 4 was assayed in a recently developed 8-day mouse model of airway hypereosinophilia ([24]). In this model, mice are sensitized by intraperitoneal injection of OVA (50 μg) adsorbed on 2 mg of aluminum hydroxide in 0.1 ml of saline on days 0, 1, and 2. Mice are then challenged intranasally with 10 μg of OVA in 25 μl of saline (12.5 μl/nostril) on days 5, 6, and 7. Drugs to be tested can be administered either systemically by the intraperitoneal route or locally by the intranasal route. The intranasal route mimics the inhalation exposure used in humans, which is the preferred and well accepted administration for inflamed airway treatment, in particular asthma. Thus, unless otherwise stated, drugs were administered intranasally in this study. Due to limited solubility of chalcone 4 (9 ± 1 μM) and CN-chalcone 4 (16 ± 2 μM) in saline buffer, drugs were dissolved in physiological solutions complemented with HP-βCD (10%, w/w). Under such conditions, chalcone 4 and CN-chalcone 4 could be dissolved at maximal concentrations reaching 690 ± 44 and 493 ± 36 μM, respectively.

[2] = General toxicity in vivo: body and spleen weight; parameters: species or system mouse; conditions: for Weight, Body (percentage of control animals) / Weight, Spleen: three days
Experimental: General toxicity was evaluated in vivo in mice that received CN-chalcone 4 intraperitoneally at a dose of 350 μmol/kg (100 mg/kg) per day during three consecutive days. As reported in Table 2, there was no body or spleen weight loss nor any modification of cytochrome c oxidase activity in lung and heart, indicating no toxicity of CN-chalcone 4 administered at the highest active dose.

Cytochrome c oxidase = Cytochrome c oxidase activity in lung and heart homogenates of treated mice; assay type: in vivo, mouse; conditions: intraperitoneal 350 μmol/kg per day, three days
Experimental: Lung and heart were homogenized separately with an UltraTurax® (IMLAB, Lille, France) in PBS, pH 7.4 (one organ in 1 ml of buffer). Lung homogenate was diluted at 1:2 and heart homogenate at 1:5 in PBS. 100 μl of each diluted homogenate were placed in a microplate, and 100 μl of assay reagent (10 mM tetramethyl-p-phenylenediamine, 2 mM sodium ascorbate, 20 mM KH2PO4) were added. The microplate was placed immediately in a microplate spectrophotometer reader, and optical density kinetic (λ = 610 nm) was measured every 20 s for 30 min. Results are expressed as Vmax/100 μg of protein (OD/min/100 μg of protein).

[3] = parameters: method as in PMID 24900366; conditions: cited from earlier work
[4] = OVA-challenged mice, intraperitoneal 350 μmol/kg per day

SMILES	effect on eosinophil / inflammatory cell recruitment in BALF after OVA challenge, intranasal [1]	inhibition of eosinophil counts in BALF [1]	effect on inflammatory cell counts in BALF after OVA challenge, intraperitoneal in HP-βCD [1]	effect on airway inflammation (BALF cell recruitment) after OVA challenge, intraperitoneal in carboxymethylcellulose [1]	Weight, Body (percentage of control animals) [2, 4] [%]	Weight, Spleen [2, 4] [mg]	Weight, Body (percentage of control animals) ([2]; mice without OVA, intraperitoneal 350 μmol/kg (100 mg/kg) per day, carboxymethylcellulose) [%]	Weight, Spleen ([2]; mice without OVA, intraperitoneal 350 μmol/kg per day) [mg]	general toxicity in vivo (body and spleen weight, cytochrome c oxidase activity in lung and heart) ([2]; mice, intraperitoneal 350 μmol/kg (100 mg/kg) per day during three consecutive days)	Cytochrome c oxidase (Vmax), Heart (×10^3) (Cytochrome c oxidase; OVA-challenged mice)	Cytochrome c oxidase (Vmax), Lung (×10^2) (Cytochrome c oxidase; OVA-challenged mice)	Cytochrome c oxidase (Vmax), Heart (×10^3) (Cytochrome c oxidase; mice without OVA)	Cytochrome c oxidase (Vmax), Lung (×10^2) (Cytochrome c oxidase; mice without OVA)	Stability half-life (t1/2), PBS ([3]; PBS pH 7.4) [h]	Stability half-life (t1/2), PBS, 10% β-cyclodextrine ([3]; PBS with 10% HP-βCD) [h]	percentage of starting molecule recovered, PBS ([3]; at 10 h) [%]	percentage of starting molecule recovered, PBS, 10% β-cyclodextrine ([3]; at 10 h) [%]
COc1cc(/C=C(\C#N)C(=O)c2ccc(Cl)cc2)ccc1O [CN-chalcone 4, (E)-2-(4-chlorobenzoyl)-3-(4-hydroxy-3-methoxyphenyl)acrylonitrile]	as potent as chalcone 4	up to 50%	did not affect any inflammatory cell counts	inactive	99.6 ± 6	123 ± 4	99.6 ± 6	125 ± 11	no toxicity	29.9 ± 3.5 OD/min/100 μg of protein (×10^	12.7 ± 1.6 OD/min/100 μg of protein (×10^	28.5 ± 3.2 OD/min/100 μg of protein (×10^	13.8 ± 2.8 OD/min/100 μg of protein (×10^				
COc1cc(/C=C/C(=O)c2ccc(Cl)cc2)ccc1O [chalcone 4]	Significant reduction of eosinophil recruitment	up to 50%	significantly reducing eosinophils, neutrophils, and T cell counts in BALF	dose-dependent anti-inflammatory activity										> 10	> 10	98	95
